Assay results taken from patent US12264156B2, “Compounds and pharmaceutical compositions thereof for the treatment of diseases” (GALAPAGOS NV, priority 2018, dated 2025).

Test system: LPS-induced TNFα in monocyte-derived macrophages (MdM)
Assay: MdM assay: LPS-triggered TNFα (ELISA)
Type: cell-based, human
Details: Homo sapiens, Macrophage, 20 h, monocyte-derived macrophages, LPS 200 ng/mL, supernatant after 20 h; read-out: TNFα EC50
How it was run: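 Compound added 1 h before LPS (200 ng/mL final) to day-10 macrophages derived from magnetically isolated CD14+ human blood monocytes, DMSO held at 0.2%. TNFα secreted over 20 h of stimulation quantified by ELISA against a standard curve.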

Row | Compound | EC50 [µM]
1 | COc1cc(-c2cnc3cc(OCC4CCCCN4C)ccn23)cc(OC(F)F)c1C(=O)NC1CC1 (centres unmarked) [compound 23, N-cyclopropyl-2-(difluoromethoxy)-6-methoxy-4-[7-[(1-methyl-2-piperidyl)methoxy]imidazo[1,2-a]pyridin-3-yl]benzamide] | 0.1 to 1
2 | CNc1cc(-c2cnc3cc(OCCN(C)C)ccn23)cc(OC(F)F)c1C(=O)NCC(F)(F)F [Cpd 165, 2-(difluoromethoxy)-4-[7-[2-(dimethylamino)ethoxy]imidazo[1,2-a]pyridin-3-yl]-6-(methylamino)-N-(2,2,2-trifluoroethyl)benzamide] | 0.1 to 1
3 | COc1cc(-c2cnc3cc(OCCN(C)C)ccn23)cc2c1C(=O)N(CC(F)F)CC2 [compound 54, 2-(2,2-difluoroethyl)-6-[7-[2-(dimethylamino)ethoxy]imidazo [1,2-a]pyridin-3-yl]-8-methoxy-3,4-dihydro isoquinolin-1-one] | 0.1 to 1
4 | COc1cc(-c2cnc3cc(OCc4ccnn4C)ccn23)cc(OC(F)F)c1C(=O)NC1CC1 [compound 44, N-cyclopropyl-2-(difluoromethoxy)-6-methoxy-4-[7-[(2-methylpyrazol-3-yl)methoxy]imidazo[1,2-a]pyridin-3-yl] benzamide] | 0.1 to 1
5 | COc1cc(-c2cnc3cc(OC(C)C(F)(F)F)ccn23)cc(OC(F)F)c1C(=O)NC1CC1 (centres unmarked) [compound 45, N-cyclopropyl-2-(difluoromethoxy)-6-methoxy-4-[7-(2,2,2-trifluoro-1-methyl-ethoxy)imidazo[1,2-a]pyridin-3-yl]benzamide] | 0.1 to 1
6 | COc1cc(-c2cnc3cc(OCC4CN(C)C4)ccn23)cc2c1C(=O)N(CC(F)(F)F)CC2 [compound 39, 8-methoxy-6-[7-[(1-methylazetidin-3-yl)methoxy]imidazo[1,2-a]pyridin-3-yl]-2-(2,2,2-trifluoroethyl)-3,4-dihydro isoquinolin-1-one] | 0.1 to 1
7 | CCN(CC)CCOc1ccn2c(-c3cc(OC)c(C(=O)NC4CC4)c(OC(F)F)c3)cnc2c1 [compound 107, N-cyclopropyl-4-[7-[2-(diethylamino)ethoxy]imidazo[1,2-a]pyridin-3-yl]-2-(difluoromethoxy)-6-methoxy-benzamide] | 0.1 to 1
8 | COc1cc(-c2cnc3cc(OCCN4CCCCC4)ccn23)cc2c1C(=O)N(CC(F)(F)F)CC2 [compound 40, 8-methoxy-6-[7-[2-(1-piperidyl)ethoxy]imidazo [1,2-a]pyridin-3-yl]-2-(2,2,2-trifluoroethyl)-3,4-dihydroisoquinolin-1-one] | 0.1 to 1
9 | CNCCOc1ccn2c(-c3cc(OC)c(C(=O)NC4CC4)c(OC(F)F)c3)cnc2c1 [compound 117, N-cyclopropyl-2-(difluoromethoxy)-6-methoxy-4-[7-[2-(methylamino)ethoxy]imidazo[1,2-a]pyridin-3-yl]benzamide] | 0.1 to 1
10 | COc1cc(-c2cnc3cc(OCC4CN(C)C4)ccn23)cc(OC(F)F)c1C(=O)NC1CC1 [Cpd 14, N-cyclopropyl-2-(difluoromethoxy)-6-methoxy-4-[7-[(1-methylazetidin-3-yl)methoxy]imidazo[1,2-a]pyridin-3-yl]benzamide] | 0.1 to 1
11 | COc1cc(-c2cnc3cc(OCCCN(C)C)ccn23)cc(OC(F)F)c1C(=O)NC1CC1 [Cpd 13] | 0.0001 to 0.1
12 | COc1cc(-c2cnc3cc(OCCC4CCCN4C)ccn23)cc(OC(F)F)c1C(=O)NC1CC1 (centres unmarked) [compound 17, N-cyclopropyl-2-(difluoromethoxy)-6-methoxy-4-[7-[2-(1-methylpyrrolidin-2-yl)ethoxy]imidazo[1,2-a]pyridin-3-yl]benzamide] | 0.0001 to 0.1
13 | COc1cc(-c2cnc3cc(OCCC4CCCN4C)ccn23)cc2c1C(=O)N(CC(F)(F)F)CC2 (centres unmarked) [Cpd 122, 8-methoxy-6-[7-[2-(1-methylpyrrolidin-2-yl)ethoxy]imidazo[1,2-a]pyridin-3-yl]-2-(2,2,2-trifluoroethyl)-3,4-dihydroisoquinolin-1-one] | 0.1 to 1

Continued, values first:

Row | EC50 [µM] | Compound
14 | 0.1 to 1 | COc1cc(-c2cnc3cc(OC[C@@H]4CN(C)CCO4)ccn23)cc2c1C(=O)N(CC(F)(F)F)CC2 [compound 191, 8-methoxy-6-[7-[[(2S)-4-methylmorpholin-2-yl]methoxy]imidazo [1,2-a]pyridin-3-yl]-2-(2,2,2-trifluoroethyl)-3,4-dihydroisoquinolin-1-one]
15 | 0.1 to 1 | COc1cc(-c2cnc3cc(OCCN(C)C)ccn23)cc(OC(F)F)c1C(=O)NCC(F)(F)F [compound 166, 2-(difluoromethoxy)-4-[7-[2-(dimethylamino)ethoxy]imidazo[1,2-a]pyridin-3-yl]-6-methoxy-N-(2,2,2-trifluoroethyl)benzamide]
16 | 0.1 to 1 | COc1cc(-c2cnc3cc(OC[C@H]4CN(C)CCO4)ccn23)cc2c1C(=O)N(CC(F)(F)F)CC2 [compound 190, 8-methoxy-6-[7-[[(2R)-4-methylmorpholin-2-yl]methoxy]imidazo[1,2-a]pyridin-3-yl]-2-(2,2,2-trifluoroethyl)-3,4-dihydro isoquinolin-1-one]
17 | 0.1 to 1 | COc1cc(-c2cnc3cc(OCC4CN(C)CCO4)ccn23)cc2c1C(=O)N(CC(F)(F)F)CC2 (centres unmarked) [compound 127, 8-methoxy-6-[7-[(4-methylmorpholin-2-yl)methoxy]imidazo[1,2-a]pyridin-3-yl]-2-(2,2,2-trifluoroethyl)-3,4-dihydroisoquinolin-1-one]
18 | 0.1 to 1 | COc1cc(-c2cnc3cc(OCCN)ccn23)cc(OC(F)F)c1C(=O)NC1CC1 [compound 118, 4-[7-(2-aminoethoxy)imidazo[1,2-a]pyridin-3-yl]-N-cyclopropyl-2-(difluoromethoxy)-6-methoxy-benzamide]
19 | 0.1 to 1 | COc1cc(-c2cnc3cc(OCCN4C[C@@H]5C[C@H]4CO5)ccn23)cc(OC(F)F)c1C(=O)NC1CC1 [compound 206, N-cyclopropyl-2-(difluoromethoxy)-6-methoxy-4-[7-[2-[(1S,4S)-2-oxa-5-azabicyclo[2.2.1]heptan-5-yl]ethoxy]imidazo[1,2-a]pyridin-3-yl]benzamide]
20 | 0.1 to 1 | COc1cc(-c2cnc3cc(OCC4CCO4)ccn23)cc2c1C(=O)N(CC(F)(F)F)CC2 (centres unmarked) [compound 125, 8-methoxy-6-[7-(oxetan-2-ylmethoxy)imidazo[1,2-a]pyridin-3-yl]-2-(2,2,2-trifluoroethyl)-3,4-dihydroisoquinolin-1-one]
21 | 0.1 to 1 | COc1cc(-c2cnc3cc(OC[C@H]4CCCN4C)ccn23)cc2c1C(=O)N(CC(F)(F)F)CC2 [compound 124, 8-methoxy-6-[7-[[(2R)-1-methylpyrrolidin-2-yl]methoxy]imidazo[1,2-a]pyridin-3-yl]-2-(2,2,2-trifluoroethyl)-3,4-dihydroisoquinolin-1-one]
22 | 0.1 to 1 | COc1cc(-c2cnc3cc(OCCN4CCCC4)ccn23)cc2c1C(=O)N(CC(F)(F)F)CC2 [compound 123, 8-methoxy-6-[7-(2-pyrrolidin-1-ylethoxy)imidazo[1,2-a]pyridin-3-yl]-2-(2,2,2-trifluoroethyl)-3,4-dihydroisoquinolin-1-one]
23 | 0.1 to 1 | CCN(CC)CCOc1ccn2c(-c3cc4c(c(OC)c3)C(=O)N(CC(F)(F)F)CC4)cnc2c1 [compound 128, 6-[7-[2-(diethylamino)ethoxy]imidazo[1,2-a]pyridin-3-yl]-8-methoxy-2-(2,2,2-trifluoroethyl)-3,4-dihydroisoquinolin-1-one]
